Source: patent US20070078179A1, “Use of a fibrate and orlistat for the treatment of obesity” (Foumier Laboratories Ireland Limited, priority 2003, published 2007)

Assay: Effect of fenofibrate and orlistat co-administration on body weight of mice fed a high-fat diet
Format: in vivo
Details: for Gain: body weight gain over 6 weeks, * p<0.05 relative to Group 5 (standard diet); for Gain / Body weight after 6 weeks: mice fed with high-fat diet, drug p.o. mixed with the diet (fenofibrate 25 mg/kg, orlistat 2.5 mg/kg), mean±sem; for Body weight after 6 weeks: in g (unit assumed)
Protocol: This study was designed to evaluate the effects of using a combination of fenofibrate and orlistat on body weight. Method Animals: Mice weighing approximately 20 g were received from CERJ. They were put into individual cages in a temperature-, humidity- and light-controlled room (21-23° C., 12-12 h light-dark cycle). […] After acclimatization, they were randomized into groups of 20 animals, based on body weight. The experimental groups were: • a Group 1: mice fed with high-fat diet • Group 2: mice fed with high-fat diet, treated with fenofibrate 25 mg/kg p.o., mixed with the diet • Group 3: mice fed with high-fat diet, treated with orlistat 2.5 mg/kg p.o., mixed with the diet • Group 4: mice fed with high-fat diet, treated with fenofibrate 25 mg/kg p.o. and orlistat 2.5 mg/kg p.o., mixed with the diet • Group 5: mice fed with standard diet Statistics: All data are presented as mean±sem. Results were subjected to Dunnett's t test. A p<0.05 was considered significant.

CCCCCCCCCCC[C@@H](C[C@@H]1OC(=O)[C@H]1CCCCCC)OC(=O)[C@H](CC(C)C)NC=O (relative stereo) [orlistat, [2S-[2α(R*),3β]]-N-formyl-L-leucine 1-[(3-hexyl-4-oxo-2-oxetanyl)methyl]dodecyl ester]
Difference from mice with a standard diet (normalization of the body weight) (after 6 weeks of treatment, mice with a high-fat diet compared with mice with a standard diet, Dunnett's t test): significant difference | Gain: 7.59 ± 0.28* | Body weight after 6 weeks: 27.12 ± 0.39

CC(C)OC(=O)C(C)(C)Oc1ccc(C(=O)c2ccc(Cl)cc2)cc1 [fenofibrate]
Gain: 7.60 ± 0.43* | Body weight after 6 weeks: 27.25 ± 0.47
